Measurements from paper PMC9880260, “Identification of compounds with activity against Trypanosoma cruzi within a collection of synthetic nucleoside analogs” (Frontiers in Cellular and Infection Microbiology, 2023).

Tests used:
[1] = system: HepG2 cells; assay: HepG2 cell toxicity assay (Alamar Blue, 48 h); assay type: cell-based, human
Protocol: (§1) Compounds were added to the plates and diluted following a dose-response pattern in assay medium. Vero cells were prepared in assay medium and added to each well as described ([Martinez-Peinado et al., 2020]). Each test plate contained its own negative (untreated cells) and positive (medium alone) control wells ([Martinez-Peinado et al., 2020]). BNZ and digitoxin (DTX) were included as non-toxicity and toxicity drug controls, respectively. Parallel assays with HepG2 cells were carried out to evaluate the toxicity of compounds in a human cell line as described ([Martinez-Peinado et al., 2020]). […] Vitality was measured with Alamar Blue (Thermo Fischer Scientific, Waltham, USA) to detect metabolically active (live) cells by fluorimetry. For this, a PBS dilution with 10% Alamar Blue was added to each well and the plates were incubated at 37°C for 6 h. Readout was performed on a TECAN Infinite M Nano+ reader (Tecan Trading AG, Männedorf, Switzerland) using i-control™ 2.0 software and setting excitation at 530 nm and emission at 590 nm.

[2] = system: T. cruzi Tulahuen parasites; conditions: Vero TC50 / anti-T. cruzi IC50
Protocol: Trypomastigotes were isolated for the maintenance of the cycle and for the performance of the antiparasitic assays, respectively. Briefly, medium containing free swimming trypomastigotes was harvested in falcon tubes and centrifuged at 2,500 rpm for 10 minutes to remove cell debris. […] In the second case, another centrifugation was made to get rid of any PR remnants that may interfere in the assay readout.
Compounds were added to a flat 96-well cell culture plate (SPL Life Sciences, Pocheon-si, Korea) and diluted in assay medium following a 1:2 dose-response pattern. Vero cells were detached, washed and counted using a Neubauer chamber. On the other side, T. cruzi trypomastigotes were collected and counted. Then, 50,000 trypomastigotes and 50,000 Vero cells were simultaneously added to each well to reach a final volume of 200 μl per well (multiplicity of infection or MOI = 1). […] Note that trypomastigotes are unable to multiply and therefore they mark the enzymatic time zero. In addition to those controls, BNZ-treated wells were also included as a positive control of drug inhibition. Plates were incubated at 37°C for 96 h. After that, chlorophenol red-β-D-galactopyranoside (CPRG) substrate was added to detect the enzymatic activity of β-galactosidase expressed by the parasites. […] Absorbance was measured at 590 nm in an Epoch Gene5 Microplate Spectrophotometer (BioTek, Winooski, USA).
(§2) Half maximum inhibitory (IC50) and half maximum toxicity concentration (TC50) values were determined with GraphPad Prism 7 software (version 7.00, San Diego, USA) using a nonlinear regression analysis model defined by equation 2:
(§3) Values were expressed as means with standard deviations (SD) of at least three independent experiments.

[3] = system: Vero cells; assay type: cell-based; conditions: green monkey, 96 h
Protocol: as §1

[4] = system: T. cruzi amastigotes; assay: Amastigotes growth inhibition assay (infected Vero cells, 72 h, CPRG); conditions: for IC50: Trypanosoma cruzi, Vero, 72 h, read-out: [IC50] Anti-amastigote assay; for activity against amastigotes: active = IC50 ≤ 10× that of BNZ
Protocol: Upon washing the monolayers with PBS, purified trypomastigotes were added at a concentration of 1×10^7 trypomastigotes per flask (MOI = 1) and infected monolayers were kept in assay medium. After 18 h, infected Vero cells were PBS-washed and trypsin-detached, diluted at a concentration of 5×10^5 cells per ml in assay medium and 100 μl of that solution (50000 cells) added to 96-well test plates already containing the compounds.
as §2, §3

[5] = Microscopy-based observation of compound dissolution / crystals in assay medium; assay type: physicochemical; conditions: for solubility: compounds at 750 μM, read-out: solubility issues / crystals formed during the assays
Protocol: Among the eight compounds selected, five carried the benzene ring group at position C8 illustrating the relevance of this substituent. Family by family, L4-0c was the only selected from L4-0.
Figure S3. Crystals of the compounds [750 μM] formed during the assays. The eight compounds selected through the discovery cascade are shown in bold. Besides, those indicated with an asterisk too had solubility issues. BNZ is shown at 400 μM.

| SMILES | [TC50] HepG2 assay ([1]; human) | SI Vero cells assays (TC50/IC50) [2] | [TC50] Vero cells assays [3] | IC50 [4] [µM] | dissolution in assay medium (microscopy-based observation) [5] | activity against amastigotes [4] | solubility [5] [µM] | [TC50] HepG2 assay ([1]; HepG2 cells, mean ± SD) [µM] |
| --- | --- | --- | --- | --- | --- | --- | --- | --- |
| O=C(Cn1ccnc1[N+](=O)[O-])NCc1ccccc1 [BNZ, benznidazole, reference compound] | 490.90 ± 267.10 µM | 81.36 | 196.90 ± 30.67 µM | 1.47 ± 0.08 | – | – | – | – |
| Cc1nc2c(NCc3ccccc3)ncnc2n1Cc1ccccc1 [Compound L4-0b] | – | 4.75 | 68.16 ± 12.00 µM | – | – | – | – | – |
| c1ccc(CNc2ncnc3c2nc(-c2ccccc2)n3Cc2ccccc2)cc1 [Compound L4-0c] | > 10,000 μM | – | > 1,000 μM | 11.2 ± 0.35 | failed to be completely dissolved | active | – | – |
| c1ccc(CCNc2ncnc3c2ncn3CCc2ccccc2)cc1 [Compound L4-1a] | – | 2.59 | 39.26 ± 4.81 µM | – | – | – | – | – |
| Cc1nc2c(NCCc3ccccc3)ncnc2n1CCc1ccccc1 [Compound L4-1b] | – | 3.52 | 55.91 ± 5.64 µM | – | – | – | – | – |
| c1ccc(CCNc2ncnc3c2nc(-c2ccccc2)n3CCc2ccccc2)cc1 [Compound L4-1c] | 53.96 ± 12.33 µM | – | > 1,000 μM | 6.21 ± 0.29 | – | active | – | – |
| COc1ccc(CNc2ncnc3c2nc(-c2ccccc2)n3Cc2ccc(OC)cc2)cc1 [Compound L4-2c] | > 10,000 μM | – | > 1,000 μM | 6.19 ± 0.21 | – | active | – | – |
| Clc1ccc(CNc2ncnc3c2ncn3Cc2ccc(Cl)cc2)cc1 [Compound L4-4a] | > 1,000 μM | – | > 1,000 μM | 9.36 ± 0.4 | – | active | – | – |
| Cc1nc2c(NCc3ccc(Cl)cc3)ncnc2n1Cc1ccc(Cl)cc1 [Compound L4-4b] | – | 5.17 | 27.01 ± 2.00 µM | – | – | – | – | – |
| Clc1ccc(CNc2ncnc3c2nc(-c2ccccc2)n3Cc2ccc(Cl)cc2)cc1 [Compound L4-4c] | 164.80 ± 38.82 µM | – | 187.50 ± 54.14 µM | 4.2 ± 0.21 | – | active | – | – |
| Brc1ccc(CCNc2ncnc3c2nc(-c2ccccc2)n3CCc2ccc(Br)cc2)cc1 [Compound L4-7c] | 550.60 ± 130.00 µM | – | 909.20 ± 564.00 µM | 7.51 ± 0.79 | – | active | – | – |
| Clc1cccc(CNc2ncnc3c2ncn3Cc2cccc(Cl)c2)c1 [Compound L4-8a] | 35.21 ± 5.52 µM | – | 346.30 ± 189.30 µM | – | – | – | – | – |
| Cc1nc2c(NCc3cccc(Cl)c3)ncnc2n1Cc1cccc(Cl)c1 [Compound L4-8b] | 17.77 ± 0.71 µM | 11.65 | 60.11 ± 8.50 µM | – | – | – | – | – |
| Clc1cccc(CNc2ncnc3c2nc(-c2ccccc2)n3Cc2cccc(Cl)c2)c1 [Compound L4-8c, N,9-bis(3-chlorobenzyl)-8-phenyl-9H-purin-6-amine] | > 1,000 μM | – | > 1,000 μM | 7.61 ± 0.36 | presence of crystals | active | < 750 | – |
| Cc1nc2c(NCc3ccccc3Cl)ncnc2n1Cc1ccccc1Cl [Compound L4-9b] | 372.20 ± 51.70 µM | – | > 1,000 μM | 8.87 ± 0.42 | presence of crystals | active | < 750 | – |
| Clc1ccccc1CNc1ncnc2c1nc(-c1ccccc1)n2Cc1ccccc1Cl [Compound L4-9c] | >10,000 μM | > 10,000 | > 10,000 μM | 28.7 ± 2.34 | – | inactive | – | – |
| C[C@H]1O[C@@H](O[C@H]2[C@@H](O)C[C@H](O[C@H]3[C@@H](O)C[C@H](O[C@H]4CC[C@@]5(C)[C@H](CC[C@@H]6[C@@H]5CC[C@]5(C)[C@@H](C7=CC(=O)OC7)CC[C@]65O)C4)O[C@@H]3C)O[C@@H]2C)C[C@H](O)[C@@H]1O [DTX, digitoxin, reference compound] | – | – | – | – | – | – | – | 1.29 ± 0.40 |
